These are literature values, as cited in patent publication US9163009B2, “Salts of raltegravir” (priority 2011, dated 2015).

The conditions of data set [1]: water.
The conditions of data set [2]: in vivo.

Consider `Cc1nnc(C(=O)NC(C)(C)c2nc(C(=O)NCc3ccc(F)cc3)c(O)c(=O)n2C)o1` [Raltegravir, N-(4-fluorobenzyl)-5-hydroxy-1-methyl-2-(1-methyl-1-{[(5-methyl-1,3,4-oxadiazol-2-yl)carbonyl]amino}ethyl)-6-oxo-1,6-dihydropyrimidine-4-carboxamide], for which the aqueous solubility result in data set [1] is given as “poor”.

As for `Cc1nnc(C(=O)NC(C)(C)c2nc(C(=O)NCc3ccc(F)cc3)c([O-])c(=O)n2C)o1.[K+]` [Form 1], in data set [2], the bioavailability over raltegravir result is given as “superior bioavailability”. `Cc1nnc(C(=O)NC(C)(C)c2nc(C(=O)NCc3ccc(F)cc3)c([O-])c(=O)n2C)o1.[K+]` [potassium salt of raltegravir]: the aqueous solubility result in data set [1] is “significantly more soluble”.
